Laboratory results taken from PubChem BioAssay (NCI).
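Test compounds were applied to cells in 96-well plates for 48 hours at 5 doses. TGI: total growth inhibition.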

What was measured:
Assay in all cases: inhibition of tumour cell growth, NCI panel, 48 h
786-0 renal = system: 786-0 renal
A498 renal = system: A498 renal
A549 NSCLC = system: A549 NSCLC
ACHN renal = system: ACHN renal
BT-549 breast = system: BT-549 breast
CAKI-1 renal = system: CAKI-1 renal
CCRF-CEM leukemia = system: CCRF-CEM leukemia
COLO 205 colon = system: COLO 205 colon
DU-145 prostate = system: DU-145 prostate
EKVX NSCLC = system: EKVX NSCLC
HCC-2998 colon = system: HCC-2998 colon
HCT-116 colon = system: HCT-116 colon
HCT-15 colon = system: HCT-15 colon
HL-60(TB) leukemia = system: HL-60(TB) leukemia
HOP-92 NSCLC = system: HOP-92 NSCLC
HS 578T breast = system: HS 578T breast
HT29 colon = system: HT29 colon
IGROV1 ovarian = system: IGROV1 ovarian
K-562 leukemia = system: K-562 leukemia
KM12 colon = system: KM12 colon
LOX IMVI melanoma = system: LOX IMVI melanoma
MALME-3M melanoma = system: MALME-3M melanoma
MCF7 breast = system: MCF7 breast
MDA-MB-231 breast = system: MDA-MB-231 breast
MDA-MB-435 = system: MDA-MB-435
MDA-N = system: MDA-N
MOLT-4 leukemia = system: MOLT-4 leukemia
NCI-H226 lung = system: NCI-H226 lung
NCI-H23 lung = system: NCI-H23 lung
NCI-H460 lung = system: NCI-H460 lung
NCI-H522 lung = system: NCI-H522 lung
NCI/ADR-RES ovarian = system: NCI/ADR-RES ovarian
OVCAR-3 ovarian = system: OVCAR-3 ovarian
OVCAR-4 ovarian = system: OVCAR-4 ovarian
OVCAR-5 ovarian = system: OVCAR-5 ovarian
OVCAR-8 ovarian = system: OVCAR-8 ovarian
PC-3 prostate = system: PC-3 prostate
RPMI-8226 leukemia = system: RPMI-8226 leukemia
SF-268 CNS = system: SF-268 CNS
SF-295 CNS = system: SF-295 CNS
SF-539 CNS = system: SF-539 CNS
SK-MEL-2 melanoma = system: SK-MEL-2 melanoma
SK-MEL-28 melanoma = system: SK-MEL-28 melanoma
SK-MEL-5 melanoma = system: SK-MEL-5 melanoma
SK-OV-3 ovarian = system: SK-OV-3 ovarian
SN12C renal = system: SN12C renal
SNB-19 CNS = system: SNB-19 CNS
SNB-75 CNS = system: SNB-75 CNS
SW-620 colon = system: SW-620 colon
T-47D breast = system: T-47D breast
TK-10 renal = system: TK-10 renal
U251 CNS = system: U251 CNS
UACC-257 melanoma = system: UACC-257 melanoma
UACC-62 melanoma = system: UACC-62 melanoma
UO-31 renal = system: UO-31 renal
HOP-62 NSCLC = system: HOP-62 NSCLC
M14 melanoma = system: M14 melanoma
RXF 393 renal = system: RXF 393 renal
SR leukemia = system: SR leukemia

Measured: TGI

COc1ccc(CC2c3cc(OC)c(OC)cc3CC[N+]2(C)C)cc1OC (stereo not given)
> 100 µM: 786-0 renal | A498 renal | A549 NSCLC | ACHN renal | BT-549 breast | CAKI-1 renal | CCRF-CEM leukemia | COLO 205 colon | DU-145 prostate | EKVX NSCLC | HCC-2998 colon | HCT-116 colon | HCT-15 colon | HL-60(TB) leukemia | HOP-92 NSCLC | HS 578T breast | HT29 colon | IGROV1 ovarian | K-562 leukemia | KM12 colon | LOX IMVI melanoma | MALME-3M melanoma | MCF7 breast | MDA-MB-231 breast | MDA-MB-435 | MDA-N | MOLT-4 leukemia | NCI-H226 lung | NCI-H23 lung | NCI-H460 lung | NCI-H522 lung | NCI/ADR-RES ovarian | OVCAR-3 ovarian | OVCAR-4 ovarian | OVCAR-5 ovarian | OVCAR-8 ovarian | PC-3 prostate | RPMI-8226 leukemia | SF-268 CNS | SF-295 CNS | SF-539 CNS | SK-MEL-2 melanoma | SK-MEL-28 melanoma | SK-MEL-5 melanoma | SK-OV-3 ovarian | SN12C renal | SNB-19 CNS | SNB-75 CNS | SW-620 colon | T-47D breast | TK-10 renal | U251 CNS | UACC-257 melanoma | UACC-62 melanoma | UO-31 renal

Cc1c(O)c(OC2OC(CO)C(O)C(O)C2O)cc2c1CC[C@@H]1C2(C)C(=O)C[C@]2(C)[C@@H]([C@@](C)(O)C(=O)CCC(C)(C)O)[C@H](O)C[C@@]12C (stereo not given in full)
> 100 µM: 786-0 renal | A498 renal | A549 NSCLC | ACHN renal | BT-549 breast | CAKI-1 renal | CCRF-CEM leukemia | COLO 205 colon | DU-145 prostate | EKVX NSCLC | HCC-2998 colon | HCT-116 colon | HCT-15 colon | HOP-62 NSCLC | HOP-92 NSCLC | HT29 colon | IGROV1 ovarian | K-562 leukemia | KM12 colon | M14 melanoma | MALME-3M melanoma | MCF7 breast | MDA-MB-231 breast | MDA-MB-435 | MDA-N | MOLT-4 leukemia | NCI-H226 lung | NCI-H23 lung | NCI-H460 lung | NCI-H522 lung | NCI/ADR-RES ovarian | OVCAR-3 ovarian | OVCAR-4 ovarian | OVCAR-5 ovarian | OVCAR-8 ovarian | PC-3 prostate | RXF 393 renal | SF-268 CNS | SF-295 CNS | SF-539 CNS | SK-MEL-2 melanoma | SK-MEL-28 melanoma | SK-MEL-5 melanoma | SK-OV-3 ovarian | SN12C renal | SNB-19 CNS | SNB-75 CNS | SR leukemia | SW-620 colon | T-47D breast | TK-10 renal | U251 CNS | UACC-257 melanoma | UACC-62 melanoma | UO-31 renal
